Measurements from patent publication US6331555A, “Treatment of platelet derived growth factor related disorders such as cancers” (priority 1999, dated 2001).

How the values were obtained:
spleen cells = test: Normal immune function in naive mice; assay type: in vivo, mouse
Description: At the indicated times, animals were sacrificed, and the spleens were aseptically removed and placed into sterile medium. Spleens were processed into single cell suspensions by grinding between sterile frosted glass microscope slides. After a single wash to remove tissue debris, the spleen cells were resuspended in a hypotonic ammonium chloride buffer to lyse erythrocytes. Lymphocytes were washed and resuspended to the appropriate concentrations in complete medium, consisting of RPMI plus 10% heat-inactivated FBS, 2 mM glutamine, 50 μM β-mercaptoethanol, and penicillin-streptomycin. The responses of the lymphocytes were examined in the following assays according to accepted procedures (Current Protocols in Immunology. Coligan, J. E., Kruisbeek, A. M., Margulies, D. H., Shevach, E. M., Strober, W. (eds.) John Wiley and Sons, Inc., 1992).
The T-cell mitogen, ConA, and the T-cell independent B-cell mitogen, LPS, were added to 96-well round-bottom wells at the indicated concentrations. Lymphocytes from normal, vehicle-dosed, and drug-dosed animals were added at a final concentration of 2.5×10^5 /well. Cultures were usually set up in triplicate or quadruplicate. The plates were incubated at 37° C. in a humidified atmosphere containing 5% CO2 for the indicated times. Supernatants (approximately 100 μL) were carefully removed from the wells and stored at -80° C. for lymphokine and immunoglobulin analyses. To measure proliferation of the lymphocytes, 1 μCi of ^3 H-thymidine was added to each well, and the plates were incubated for 6 hr. The cultures were harvested onto glass fiber filters, and the incorporated radioactivity was quantitated by liquid scintillation counting (Betaplate, Wallac).
Lymphocytes from normal, vehicle-dosed, and drug-dosed animals were plated at 2.5×10^5 /well in round-bottom 96-well plates. Stimulator cells were then added at the same cell concentration. The stimulator cells consisted of syngeneic or allogeneic lymphocytes which had been treated with 50 μg/mL of mitomycin C for 30 min prior to the assay. The plates were incubated for 3 to 4 days, at which time supernatants were harvested and the cultures were pulsed as described for the mitogen assays.
Supernatants from mitogen and MLR cultures were assayed for IL-2 and IL-6 content by the ability to support the growth of factor-dependent cell lines. HT-2 cells (10^4 /well, IL-2-dependent) and 7TD1 cells (2×10^3 /well, IL-6-dependent) were plated in 96-well flat-bottom plates, in 50 μL/well. Supernatants were added in 50 μL/well, and the plates were incubated overnight (HT-2) or four days (7TD1). Cellular proliferation was determined in the MTT colorimetric assay (Appendix 3.1).
Flat bottom 96-well EIA plates were coated with goat anti-mouse Ig antibodies (Southern Biotechnology) overnight at 4° C. The plates were blocked by the addition of PBS+1% BSA. After washing with PBS, supernatants from murine mitogen and MLR cultures were added and incubated at room temperature for 1 hr. The plates were washed with PBS, then HRP-labeled goat anti-mouse Ig antibodies were added and incubated at room temperature for 1 hr. The plates were washed and developed by the addition of substrate (ABTS).
The animals were sacrificed and their spleen cells were assayed in vitro for responses to ConA (a T-cell mitogen), LPS (a T-cell independent B-cell mitogen), and alloantigens (C3H/HeJ spleen cells) as described in Appendix 5. The IL-2, IL-6, Ig content and cellular proliferation were measured after 48 hr (mitogens) or 72 hr (alloantigens).

[1] = test system: autoimmune animal diseases; conditions: in vivo; cited from earlier work
T98G cells = test: PDGF-stimulated DNA synthesis, T98G cells (3H-thymidine); assay type: cell-based, human; conditions: 50 ng/ml PDGF-BB
Description: T98G cells in log phase growth were transferred to 96-well dishes at 20,000 cells in 200 μL of serum-containing growth medium. After an overnight attachment period, the monolayers were washed twice with 200 μL MCDB 105 medium and the cells were cultured in 200 μL serum-free MCDB 105 medium for 24 hr. […] The plates were incubated at 37° C. at ambient CO2 for approximately 18 hr. ^3 H-thymidine (Amersham, 5 Ci/mmol) was added to each well to yield a final concentration of 5 μCi/mL and the plates were returned to 37° C. incubator. After 4 hr the medium was removed, the plates were put onto ice, and washed twice with 200 μL ice-cold PBS per well. Radioactivity incorporated into DNA was separated from unincorporated ^3 H-thymidine by precipitation with 100 μL ice-cold TCA for 10 min on ice. […] Six mL of cocktail (Ready Safe, Beckman) was added and radioactivity quantified in a Beckman liquid scintillation counter model LS6000SC. […]
The effect on basal ^3 H-thymidine incorporation was determined in the absence of PDGF. […] Radioactivity incorporated into DNA was separated from unincorporated ^3 H-thymidine by precipitation with […] ice-cold TCA for 10 minutes. […] Six ml of cocktail (Ready Safe, Beckman) was added and radioactivity quantified in a Beckman liquid scintillation counter model LS6000 SC.

## Cc1oncc1C(=O)Nc1ccc(C(F)(F)F)cc1 [Compound A10, 5-methylisoxazole-4 carboxylic acid-(4-trifluromethyl)-anilide]
Spleen cells; Allo, d7, vs vehicle
  3H-thymidine uptake: 0
  IL-2 production: 0
  IL-6 production: 0
  Ig production: 0
Spleen cells; Allo, d21, vs vehicle
  3H-thymidine uptake: 0
  IL-2 production: 0
  IL-6 production: 0
  Ig production: 0
Spleen cells; ConA, d7, vs vehicle
  3H-thymidine uptake: 0
  IL-2 production: 0
  IL-6 production: ++
  Ig production: 0
Spleen cells; ConA, d21, vs vehicle
  3H-thymidine uptake: 0
  IL-2 production: 0
  IL-6 production: 0
  Ig production: 0
Spleen cells; LPS, d7, vs vehicle
  3H-thymidine uptake: 0
  IL-2 production: 0
  IL-6 production: 0
  Ig production: +
Spleen cells; LPS, d21, vs vehicle
  3H-thymidine uptake: 0
  IL-2 production: 0
  IL-6 production: 0
  Ig production: +/-
[1]
  autoimmune animal diseases: very effective in preventing and curing several autoimmune animal diseases
T98G cells
  PDGF-stimulated DNA synthesis: decreased PDGF-stimulated DNA synthesis in both types of cells, however a greater effect was seen in human T98G glioblastoma cells
